Test results as given in US8722731B2, “Furanyl compounds and the use thereof” (NovoMedix, LLC, priority 2010, dated 2014).
Where two headings read alike, the source gives them in different places.

What was measured:
[1] = system: triple negative breast cancer cell line MDA-MB-468; test: IC50 cell-based assay, adherent cells, MDA-MB-468; settings: Homo sapiens
Experimental: (§1) In one embodiment, the IC50s of the compounds provided herein were determined in cell-based assays using adherent cells. In one embodiment, the activity of the compounds provided herein were determined in a cell-based assay using the triple negative breast cancer cell line MDA-MB-468. In one embodiment, the adherent cells used in the cell-based assays may be a cell type selected from Table 1. In one embodiment, the cell-based assay may be carried out as provided herein. On day 0, cells were seeded at 20,000 cells per well in 100 µL of media into individual wells of a 96-well tissue culture plate. The next day, compounds were diluted to twice the desired final concentration and added in 100 µL of media for a final volume of 200 μL. Standard solutions for each compound were prepared at 1000× concentration in DMSO. The highest concentration was 30 mM. Serial 1:1 dilutions were made from there for a 6- or 9-point curve (e.g., 30 mM, 15 mM, 7.5 mM, etc). Compounds were then diluted 1:500 in media, and 100 µL of the resulting solution was added to each well for a final dilution of 1:1000. Each concentration of compound was tested in triplicate. Cells were incubated at 37° C. with 5% CO2. After 72 hours, 20 μL of CellTiter 96 Aqueous One Solution Cell Proliferation Assay (Promega) was added to each well. Cells were placed back in the incubator, and the absorbance at 490 nm was read after 2-3 hours. The concentration of compound that decreased the number of metabolically active cells by 50% was determined and reported as the IC50. “Percent Viability” was determined by subtracting the average background value (media only) and expressed as a ratio to the average value obtained from cells treated with only DMSO.
The IC50s of the compounds provided herein were determined in cell-based assay using triple negative breast cancer cell line MDA-MB-468.

Nalm-6 = test: IC50 cell-based assay, suspension cells, Nalm-6; settings: Homo sapiens, Leukemia, B-ALL, read-out: IC50 of Compounds in Suspension Cell Types
Experimental: as §1
(§2) In one embodiment, the IC50s of the compounds provided herein were determined in cell-based assays using suspension cells. In one embodiment, the activity of the compounds provided herein were determined in a cell-based assay using the JeKo-1 cell line (mantle cell lymphoma) or the Pfeiffer cell line (diffuse large B-cell lymphoma). In one embodiment, the suspension cells used in the cell-based assays may be a cell type selected from Table 2. Assays with suspension cells were similar except that 40,000-60,000 cells were added to each well and compounds were added immediately after cell plating.

MHH-CALL-4 = test: IC50 cell-based assay, suspension cells, MHH-CALL-4; settings: MHHCALL4, Leukemia, B-ALL (CRLF2 Hi), read-out: IC50 of Compounds in Suspension Cell Types
Experimental: as §1, §2

OVCAR-3 = test: IC50 cell-based assay, adherent cells, OVCAR-3; settings: Homo sapiens, Ovarian, adenocarcinoma, 72 hours, read-out: IC50 of Compounds in Adherent Cell Types
Experimental: as §1

HL-60 = test: IC50 cell-based assay, suspension cells, HL-60; settings: Homo sapiens, Leukemia, AML, read-out: IC50 of Compounds in Suspension Cell Types
Experimental: as §1, §2

Hep-G2 = test: IC50 cell-based assay, adherent cells, Hep-G2; settings: Homo sapiens, HepG2, Liver, hepatocellular carcinoma, 72 hours, read-out: IC50 of Compounds in Adherent Cell Types
Experimental: as §1

H-460 = test: IC50 cell-based assay, adherent cells, H-460; settings: Homo sapiens, NCI-H460, Lung, large cell carcinoma, 72 hours, read-out: IC50 of Compounds in Adherent Cell Types
Experimental: as §1

MDA-MB-231 = test: IC50 cell-based assay, adherent cells, MDA-MB-231; settings: Homo sapiens, Breast, triple neg, 72 hours, read-out: IC50 of Compounds in Adherent Cell Types
Experimental: as §1

SupB15 = test: IC50 cell-based assay, suspension cells, SupB15; settings: Homo sapiens, SUP-B15, Leukemia, B-ALL (Philadelphia chromosome+), read-out: IC50 of Compounds in Suspension Cell Types
Experimental: as §1, §2

FaDu = test: IC50 cell-based assay, adherent cells, FaDu; settings: Homo sapiens, Pharynx, squamous cell, 72 hours, read-out: IC50 of Compounds in Adherent Cell Types
Experimental: as §1

1937 = test: IC50 cell-based assay, adherent cells, 1937; settings: Breast, triple neg, 72 hours, read-out: IC50 of Compounds in Adherent Cell Types
Experimental: as §1

MDA-MB-361 = test: IC50 cell-based assay, adherent cells, MDA-MB-361; settings: Homo sapiens, Breast, Brain met Her2-neu + ER +, 72 hours, read-out: IC50 of Compounds in Adherent Cell Types
Experimental: as §1

Kg1a = test: IC50 cell-based assay, suspension cells, Kg1a; settings: Homo sapiens, KG-1a, Leukemia, AML, read-out: IC50 of Compounds in Suspension Cell Types
Experimental: as §1, §2

HT-29 = test: IC50 cell-based assay, adherent cells, HT-29; settings: Homo sapiens, Colorectal, adenocarcinoma, 72 hours, read-out: IC50 of Compounds in Adherent Cell Types
Experimental: as §1

Caki-1 = test: IC50 cell-based assay, adherent cells, Caki-1; settings: Homo sapiens, Kidney, clear cell carc., skin met, 72 hours, read-out: IC50 of Compounds in Adherent Cell Types
Experimental: as §1

MCF-7 = test: IC50 cell-based assay, adherent cells, MCF-7; settings: Homo sapiens, MCF7, Breast, ER+, 72 hours, read-out: IC50 of Compounds in Adherent Cell Types
Experimental: as §1

Panc-1 = test: IC50 cell-based assay, adherent cells, Panc-1; settings: Homo sapiens, Pancreas, epitheloid carcinoma, 72 hours, read-out: IC50 of Compounds in Adherent Cell Types
Experimental: as §1

RT-4 = test: IC50 cell-based assay, adherent cells, RT-4; settings: Homo sapiens, Bladder, papilloma, 72 hours, read-out: IC50 of Compounds in Adherent Cell Types
Experimental: as §1

A549 = test: IC50 cell-based assay, adherent cells, A549; settings: Homo sapiens, Lung, NSCLC, 72 hours, read-out: IC50 of Compounds in Adherent Cell Types
Experimental: as §1

Nalm-6-VR = test: IC50 cell-based assay, suspension cells, Nalm-6-VR; settings: Leukemia, B-ALL, Vincristine resistant, read-out: IC50 of Compounds in Suspension Cell Types
Experimental: as §1, §2

AsPC-1 = test: IC50 cell-based assay, adherent cells, AsPC-1; settings: Homo sapiens, ASPC1, Pancreas, carcinoma, 72 hours, read-out: IC50 of Compounds in Adherent Cell Types
Experimental: as §1

SK-MEL-28 = test: IC50 cell-based assay, adherent cells, SK-MEL-28; settings: Homo sapiens, Melanoma, 72 hours, read-out: IC50 of Compounds in Adherent Cell Types
Experimental: as §1

SKBR-3 = test: IC50 cell-based assay, adherent cells, SKBR-3; settings: Homo sapiens, SK-BR-3, Breast, ER−, 72 hours, read-out: IC50 of Compounds in Adherent Cell Types
Experimental: as §1

Z138, JeKo-1 = test: IC50 cell-based assay, suspension cells, Z138, JeKo-1; settings: Lymphoma, Mantle cell, read-out: IC50 of Compounds in Suspension Cell Types
Experimental: as §1, §2

A431 = test: IC50 cell-based assay, adherent cells, A431; settings: Homo sapiens, A-431, Skin, epidermoid carcinoma, 72 hours, read-out: IC50 of Compounds in Adherent Cell Types
Experimental: as §1

U87-MG = test: IC50 cell-based assay, adherent cells, U87-MG; settings: Homo sapiens, U-87 MG, Brain, glioblastoma, 72 hours, read-out: IC50 of Compounds in Adherent Cell Types
Experimental: as §1

Pfeiffer = test: IC50 cell-based assay, suspension cells, Pfeiffer; settings: Homo sapiens, Lymphoma, Diffuse large b-cell, read-out: IC50 of Compounds in Suspension Cell Types
Experimental: as §1, §2

[2] = MDA-MB-468, Breast, triple neg, 72 hours, Table 1, read-out: IC50 of Compounds in Adherent Cell Types
[3] = MDA-MB-468 cells, Table 3, read-out: IC50 of Compounds in MDA-MB-468 Cells

Row | Structure (SMILES) | IC50 [1, 2] | IC50 [1, 3] | IC50 (Nalm-6) | IC50 (MHH-CALL-4) | IC50 (OVCAR-3) | IC50 (HL-60) | IC50 (Hep-G2) | IC50 (H-460) | IC50 (MDA-MB-231) | IC50 (SupB15) | IC50 (FaDu) | IC50 1937 | IC50 (MDA-MB-361) | IC50 (Kg1a) | IC50 (HT-29) | IC50 (MCF-7) | IC50 (Panc-1) | IC50 (SKBR-3) | IC50 (Z138, JeKo-1) | IC50 (Pfeiffer) | further results
1 | COc1ccc(-c2cc(C(=O)Nc3cc(C(F)(F)F)cc(C(F)(F)F)c3)c(C(F)(F)F)o2)cc1 [Compound 8, 5-(4-Methoxy-phenyl)-2-trifluoromethyl-furan-3-carboxylic acid (3,5-bis-trifluoromethyl-phenyl)-amide] | < 5 µM | 2 µM | < 5 µM |  |  |  |  |  |  |  |  |  |  |  |  |  |  |  |  |  | 
2 | O=C(Nc1cc(F)cc(C(F)(F)F)c1)c1cc(-c2ccc(Cl)cc2)oc1C(F)(F)F [Compound 5, 5-(4-Chloro-phenyl)-2-trifluoromethyl-furan-3-carboxylic acid (3-fluoro-5-trifluoromethyl-phenyl)-amide] | < 5 µM | 4 µM | < 5 µM | 5 to 10 µM | 5 to 10 µM | < 5 µM | 10 to 20 µM | > 20 µM | 5 to 10 µM | < 5 µM | 5 to 10 µM | 5 to 10 µM | 10 to 20 µM | 5 to 10 µM | > 20 µM | < 5 µM | < 5 µM | < 5 µM | < 5 µM | 5 to 10 µM | IC50 (Caki-1): 5 to 10 µM; IC50 (RT-4): > 20 µM; IC50 (A549): 5 to 10 µM; IC50 (Nalm-6-VR): < 5 µM; IC50 (AsPC-1): 5 to 10 µM; IC50 (SK-MEL-28): 5 to 10 µM; IC50 (A431): > 20 µM; IC50 (U87-MG): 10 to 20 µM
3 | Cc1oc(-c2ccccc2)cc1C(=O)Nc1cc(C(F)(F)F)cc(C(F)(F)F)c1 [Compound 4, 2-Methyl-5-phenyl-furan-3-carboxylic acid (3,5-bis-trifluoromethyl-phenyl)-amide] | 10 to 20 µM | > 30 µM | > 20 µM | > 20 µM |  | > 20 µM |  |  | > 20 µM | > 20 µM |  | > 20 µM | > 20 µM | > 20 µM |  | > 20 µM | > 20 µM | > 20 µM | > 20 µM | > 20 µM | 
4 | O=C(Nc1cc(F)cc(C(F)(F)F)c1)c1cc(-c2ccccc2)oc1C(F)(F)F [Compound 6, 5-Phenyl-2-trifluoromethyl-furan-3-carboxylic acid (3-fluoro-5-trifluoromethyl-phenyl)-amide] | < 5 µM | 4 µM | < 5 µM | 10 to 20 µM | 5 to 10 µM | 5 to 10 µM | > 20 µM | > 20 µM | 5 to 10 µM | 5 to 10 µM | 5 to 10 µM | 5 to 10 µM | 10 to 20 µM | 10 to 20 µM | > 20 µM | 5 to 10 µM | 5 to 10 µM | < 5 µM | 5 to 10 µM | 10 to 20 µM | IC50 (Caki-1): 5 to 10 µM; IC50 (RT-4): > 20 µM; IC50 (A549): 5 to 10 µM; IC50 (Nalm-6-VR): < 5 µM; IC50 (AsPC-1): 5 to 10 µM; IC50 (SK-MEL-28): 5 to 10 µM; IC50 (A431): 5 to 10 µM; IC50 (U87-MG): 10 to 20 µM
5 | O=C(Nc1cc(C(F)(F)F)cc(C(F)(F)F)c1)c1cc(-c2ccc(Br)cc2)oc1C(F)(F)F [Compound 3, 5-(4-Bromophenyl)-N-(3,5-bistrifluoromethylphenyl)-2-trifluoromethylfuran-3-carboxamide] | < 5 µM | 1.5 µM | 5 to 10 µM | < 5 µM | < 5 µM | < 5 µM | 5 to 10 µM | 10 to 20 µM | 5 to 10 µM | < 5 µM | < 5 µM | < 5 µM | < 5 µM | < 5 µM | 10 to 20 µM | 5 to 10 µM | 5 to 10 µM | < 5 µM | < 5 µM | < 5 µM | IC50 (Caki-1): 5 to 10 µM; IC50 (RT-4): > 20 µM; IC50 (A549): < 5 µM; IC50 (Nalm-6-VR): < 5 µM; IC50 (AsPC-1): 5 to 10 µM; IC50 (SK-MEL-28): 5 to 10 µM; IC50 (A431): 5 to 10 µM; IC50 (U87-MG): 5 to 10 µM
6 | O=C(Nc1cc(F)cc(C(F)(F)F)c1)c1cc(-c2ccc(Br)cc2)oc1C(F)(F)F [Compound 7, 5-(4-Bromo-phenyl)-2-trifluoromethyl-furan-3-carboxylic acid (3-fluoro-5-trifluoromethyl-phenyl)-amide] | < 5 µM | 5 µM | 5 to 10 µM | 10 to 20 µM | 5 to 10 µM | 5 to 10 µM | 10 to 20 µM | > 20 µM | 10 to 20 µM | 5 to 10 µM | 5 to 10 µM | 5 to 10 µM | > 20 µM | 10 to 20 µM | > 20 µM | 5 to 10 µM | > 20 µM | 5 to 10 µM | 5 to 10 µM | 10 to 20 µM | IC50 (RT-4): > 20 µM; IC50 (A549): > 20 µM; IC50 (Nalm-6-VR): 10 to 20 µM; IC50 (AsPC-1): 10 to 20 µM; IC50 (SK-MEL-28): 10 to 20 µM; IC50 (A431): 10 to 20 µM; IC50 (U87-MG): > 20 µM
